Structures are written as SMILES.

The target of experiment [1] is Gastrin-releasing peptide receptor (Homo sapiens, UniProt P30550). Nature of the experiment: Binding affinity against [125 I][4Tyr]-bombesin labeled cloned human GRP(gastrin releasing peptide) receptors stably expressed in CHO cells. In kind it is cell-based.
Experiment [2] has as its target T1, Neuromedin-B receptor (Homo sapiens, UniProt P28336). Nature of the experiment: Binding affinity against [125 I][4Tyr]-bombesin labeled cloned human NMB receptor stably expressed in CHO cells. Type of experiment: cell-based.
Target sequence in this assay (P28336 whole entry): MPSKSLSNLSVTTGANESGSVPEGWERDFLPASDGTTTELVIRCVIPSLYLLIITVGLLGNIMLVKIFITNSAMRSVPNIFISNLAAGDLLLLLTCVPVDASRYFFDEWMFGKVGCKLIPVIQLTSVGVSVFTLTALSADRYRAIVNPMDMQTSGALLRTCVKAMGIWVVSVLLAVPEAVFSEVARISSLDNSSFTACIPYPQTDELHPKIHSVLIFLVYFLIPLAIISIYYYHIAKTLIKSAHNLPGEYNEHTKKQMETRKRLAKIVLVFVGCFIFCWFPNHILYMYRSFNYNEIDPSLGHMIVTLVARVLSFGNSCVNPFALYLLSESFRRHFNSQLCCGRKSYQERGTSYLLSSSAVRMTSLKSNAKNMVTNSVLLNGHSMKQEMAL
Experiment [3] has as its target T1, Neuromedin-B receptor. Put plainly: Binding affinity against human NMB receptor was determined.
Target sequence in this assay (P28336 whole entry): as above
Experiment [4] addresses T1, Neuromedin-B receptor. Nature of the experiment: Inhibition of the NMB evoked increases in chloride currents in xenopus oocytes expressing human NMB receptor. Type of experiment: functional, cell-based. The settings on record: Oocyte.
Target sequence in this assay (P28336 whole entry, looked up): as the sequence (P28336 whole entry) above
The target in experiment [5] is T2, Neuromedin-B receptor (Rattus norvegicus, UniProt P24053).
T2 sequence (P24053 whole entry): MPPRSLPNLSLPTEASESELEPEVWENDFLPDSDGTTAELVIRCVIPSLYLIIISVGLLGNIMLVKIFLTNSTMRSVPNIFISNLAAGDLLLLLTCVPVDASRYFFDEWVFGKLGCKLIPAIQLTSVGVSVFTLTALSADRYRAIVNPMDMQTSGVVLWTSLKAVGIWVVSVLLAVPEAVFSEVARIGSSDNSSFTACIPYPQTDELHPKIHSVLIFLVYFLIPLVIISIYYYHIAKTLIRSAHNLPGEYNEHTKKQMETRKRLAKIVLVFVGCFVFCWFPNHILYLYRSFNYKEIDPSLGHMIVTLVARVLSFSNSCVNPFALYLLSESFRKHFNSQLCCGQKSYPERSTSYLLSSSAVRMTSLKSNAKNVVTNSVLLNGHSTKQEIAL
Nature of the experiment: Binding affinity against NMB receptor in rat olfactory bulb was determined using [125I]-[Tyr4] bombesin.

The target of experiment [6] is T1, Neuromedin-B receptor. Nature of the experiment: Inhibition of the NMB induced acidification response at human NMB receptor expressed in CHO cell. Type of experiment: functional, cell-based.
Target sequence in this assay (P28336 whole entry, looked up): as the sequence (P28336 whole entry) above

Chain of Gastrin-releasing peptide receptor (P30550 whole entry): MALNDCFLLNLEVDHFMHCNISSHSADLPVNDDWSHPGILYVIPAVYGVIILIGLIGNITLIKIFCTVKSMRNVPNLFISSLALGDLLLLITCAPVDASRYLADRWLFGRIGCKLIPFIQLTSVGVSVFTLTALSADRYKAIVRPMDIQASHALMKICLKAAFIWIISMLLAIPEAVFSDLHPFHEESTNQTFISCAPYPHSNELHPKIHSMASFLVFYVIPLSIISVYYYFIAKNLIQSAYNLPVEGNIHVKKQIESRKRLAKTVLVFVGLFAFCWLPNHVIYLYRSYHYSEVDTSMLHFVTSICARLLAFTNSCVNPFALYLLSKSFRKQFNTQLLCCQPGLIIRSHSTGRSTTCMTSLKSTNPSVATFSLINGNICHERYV

Turning to `CC(C)c1cccc(C(C)C)c1NC(=O)NC(C)(Cc1c[nH]c2ccccc12)C(=O)NCCc1ccccc1` (stereo not drawn), the Ki in experiment [1] is over 10000 nM; on Neuromedin-B receptor [2] it was 450 nM.

On to `CC(C)c1cccc(C(C)C)c1NC(=O)NC(C)(Cc1c[nH]c2ccccc12)C(=O)N[C@H]1COC(C)(C)OC1c1ccccc1` (stereo partly drawn), for which the results for the inhibitory constant (Ki) (in experiment [1]; on Neuromedin-B receptor [2]) were over 10000 nM and 95 nM, respectively.

As to `CC(C)c1cccc(C(C)C)c1NC(=O)NC(C)(Cc1c[nH]c2ccccc12)C(=O)NC1COC(C)(C)OC1` (stereo not drawn), the Ki in experiment [1] is over 10000 nM; on Neuromedin-B receptor [2] it was 630 nM.

With `CC(C)c1cccc(C(C)C)c1NC(=O)NC(Cc1c[nH]c2ccccc12)C(=O)NC(C)C1CCCCC1` (stereo not drawn), the Ki is over 10000 nM in experiment [1] and 440 nM at Neuromedin-B receptor [2].

As to `CC(C)c1cccc(C(C)C)c1NC(=O)NC(C)(Cc1c[nH]c2ccccc12)C(=O)NCC1CCCCC1` (stereo not drawn), the inhibitory constant (Ki) in experiment [1] is over 10000 nM; at Neuromedin-B receptor [2] it was 125 nM.

Take `CC(C)c1cccc(C(C)C)c1NC(=O)NC(Cc1c[nH]c2ccccc12)C(=O)NCC1CCCCC1` (stereo not drawn): the Ki in experiment [1] is over 10000 nM; on Neuromedin-B receptor [2], 120 nM.

For `CC(C)c1cccc(C(C)C)c1NC(=O)NC(C)(Cc1c[nH]c2ccccc12)C(=O)NCC1(c2ccccc2)CCCCC1` (stereo not drawn), the inhibition constant (Ki) in experiment [1] was over 10000 nM; at Neuromedin-B receptor [2], 7.8 nM.

For `CC(C)c1cccc(C(C)C)c1NC(=O)N(C)C(Cc1c[nH]c2ccccc12)C(=O)NCC1CCCCC1` (stereo not drawn), in experiment [1], the Ki came to 1500 nM.

As for `CC(C)c1cccc(C(C)C)c1NC(=O)NC(C)(Cc1c[nH]c2ccccc12)C(=O)NC1CCCCC1` (stereo not drawn), the Ki is over 10000 nM in experiment [1] and 310 nM on Neuromedin-B receptor [2].

As to `CC(C)c1cccc(C(C)C)c1NC(=O)NC(C)(Cc1c[nH]c2ccccc12)C(=O)NC1CCc2ccccc2C1` (stereo not drawn), the Ki in experiment [1] was over 10000 nM; at Neuromedin-B receptor [2] it was 310 nM.

For the compound `CNC(=O)C(C)(Cc1c[nH]c2ccccc12)NC(=O)Nc1c(C(C)C)cccc1C(C)C` (stereo not drawn), the Ki in experiment [1] was over 10000 nM; on Neuromedin-B receptor [2], 3700 nM.

As for `CC(C)c1cccc(C(C)C)c1NC(=O)NC(C)(Cc1c[nH]c2ccccc12)C(=O)N[C@@H]1COC(C)(C)OC1c1ccccc1` (stereo partly drawn), the Ki was over 10000 nM in experiment [1] and 420 nM at Neuromedin-B receptor [2].

For the compound `CC(C)c1cccc(C(C)C)c1NC(=O)N[C@@](C)(Cc1c[nH]c2ccccc12)C(=O)NC1CCCCC1c1ccccc1` (stereo partly drawn), the Ki is over 10000 nM in experiment [1] and 76 nM at Neuromedin-B receptor [2].

For the compound `CC(C)c1cccc(C(C)C)c1NC(=O)NC(Cc1c[nH]c2ccccc12)C(=O)N(C)CC1CCCCC1` (stereo not drawn), the Ki in experiment [1] is over 10000 nM.

For the compound `CC(C)c1cccc(C(C)C)c1N(C)C(=O)NC(Cc1c[nH]c2ccccc12)C(=O)NCC1CCCCC1` (stereo not drawn), the Ki is over 10000 nM in experiment [1] and 260 nM on Neuromedin-B receptor [2].

For the compound `CC(C)c1cccc(C(C)C)c1NC(=O)NC(C)(Cc1c[nH]c2ccccc12)C(=O)NC1CCCc2ccccc21` (stereo not drawn), the Ki in experiment [1] is over 10000 nM; at Neuromedin-B receptor [2], 72 nM.

Take `CC(C)c1cccc(C(C)C)c1NC(=O)N[C@](C)(Cc1c[nH]c2ccccc12)C(=O)NC1CCCc2ccccc21` (stereo partly drawn): the values for the Ki (in experiment [1]; at Neuromedin-B receptor [2]) were over 10000 nM and 14 nM, respectively.

As for `CC(C)c1cccc(C(C)C)c1NC(=O)N[C@@](C)(Cc1c[nH]c2ccccc12)C(=O)NCC1(c2ccccn2)CCCCC1`, the Ki on Neuromedin-B receptor [3] was 6.3 nM; in experiment [1], over 10000 nM; on Neuromedin-B receptor [2] it was 6.3 nM. The Kb at Neuromedin-B receptor [4] came to 7.5 nM; on Neuromedin-B receptor [6], 7.6 nM. The IC50 at Neuromedin-B receptor [5] was found to be 150 nM.

These data come from ChEMBL document CHEMBL1159192, “PD 165929 the first high affinity non-peptide neuromedin-B (NMB) receptor selective antagonist” (Bioorg Med Chem Lett, 1996).
